According to patent US5886165A, “Mixed backbone antisense oligonucleotides containing 2'-5'-ribonucleotide- and 3'-5'-deoxyribonucleotides segments” (Hybridon, Inc., priority 1996, dated 1999):
[25] = 2'-5' internucleotide linkage (phosphodiester)

Tests used:
[1] = tested on: RNA target strand SEQ ID NO 9 (25 base sequence from the initiation codon region of the HIV-1 gag mRNA); test: Thermal melting study, duplex with RNA target strand; type: binding; conditions: for Tm RNA: duplex with RNA SEQ ID NO 9, 10 mM disodium hydrogen phosphate pH 7.5, 100 mM NaCl, 2.0 μM total strands; for Tm lower than duplex of control phosphorothioate oligonucleotide SEQ ID NO 8, RNA target: vs SEQ ID NO 8, RNA SEQ ID NO 9
Experimental: (§1) Thermal denaturation studies were carried out by mixing MBOs with the DNA or RNA target strands in equimolar ratios in 10 mM disodium hydrogen phosphate, pH 7.5±0.1, 100 mM sodium chloride buffer, heated to 95° C. for 10 min, and allowed to come to room temperature slowly before being stored at 4° C. overnight. The final total concentration of the oligonucleotide strands was 2.0 μM. Spectrophotometric measurements were performed at 260 nm using 1 cm path length quartz cuvettes at a heating rate of 0.5° C./min on a Perkin-Elmer (Norwalk, Conn.) Lambda 2 Specotrometer attached to a thermal controller and a personal computer. Melting temperatures (Tm) taken as the temperature of half-dissociation and were obtained from first derivative plots. Precision in Tm values estimated from variance in two or three repeated experiments was ±0.5° C.

[2] = tested on: DNA target strand SEQ ID NO 10 (25 base sequence from the initiation codon region of the HIV-1 gag mRNA); test: Thermal melting study, duplex with DNA target strand; type: binding; conditions: for Tm DNA: duplex with DNA SEQ ID NO 10, 10 mM disodium hydrogen phosphate pH 7.5, 100 mM NaCl, 2.0 μM total strands; for Tm lower than duplex of control phosphorothioate oligonucleotide SEQ ID NO 8, DNA target: vs SEQ ID NO 8, DNA SEQ ID NO 10
Experimental: as §1

[3] = tested on: normal human serum complement lysis of sheep red blood cells; test: CH50 hemolytic complement assay; conditions: for 50% Inhibition of Complement Lysis: compared to saline control
Experimental: A CH50 assay for complement lysis of sheep red blood cells (Colorado Serum Co., Denver, Col.) sensitized with anti-sheep red cell antibody (hemolysin; Diamedix, Miami, Fla.) as previously described (Mayer, In Experimental Immunochemistry, Kabat and Mayer eds., C. C. Thomas, Springfield, pp. 125-131 (1961)), was modified to test 1-200 dilutions of normal human serum interpreted. Hemoglobin release into cell-free supernates was measured spectrophotometrically at 541 nm. Data were calculated as 50% inhibition of lysis compared to saline control.

HIV-1 = test: Inhibition of HIV-1 replication in cell culture (MT-4 cells, MTT); type: cell-based; conditions: for IC50: 6 days
Experimental: Oligonucleotides according to the invention were studied for their ability to inhibit HIV-1. HIV-1 inhibition assay was carried out as described previously. Kandimalla et al., Nucleic Acids Res., supra). Briefly, serial dilutions of antisense oligonucleotides were prepared in 50 μl volumes of complete medium (RAMI-1640, 10% fetal bovine serum, 2 mM L-glutamine, 100 U/ml penicillin, […] streptomycin) in triplicate in 96-well plates. Virus diluted to contain a 90% CP dose of virus in 50 μl was added, followed by 100 μl 4×10^5 /ml MT-4 cells in complete medium. The plates were incubated at 37° C. in 5% CO2 for 6 days. MTT dye was added and quantified at A540 and A690 as described. The percent inhibition was calculated by the formula (experimental--virus control)/(medium control--virus control)×100.

[4] = tested on: citrated normal human donor plasma; test: Clotting assay, activated partial thromboplastin time (aPTT); conditions: compared to saline control; for 50% Prolongation of Clotting (aPTT): human plasma; for effect in coagulation assay (in words): up to 100 μg/ml dose
Experimental: The activated partial thromboplastin time (aPTT) was performed with citrated normal human donor plasma in duplicate on an Electra 1000C (Medical Laboratory Automation, Mount Vernon, N.Y.) according to recommended procedures using Actin FSL (Baxter Dade, Miami, Fla.) and 2.5 mM calcium to initiate clot formation, which was measured photometrically. Normal plasma aPTT values ranged from 27 to 39 sec. Data were calculated as 50% of prolongation as compared to the saline control.

Spleen cells (CD1 mouse) = test: In vitro cell proliferation assay ([3H]thymidine); type: cell-based; conditions: at 10 μg/ml, 48 hrs
Experimental: Cell proliferation assays were carried out as described earlier (Zhao et al., Biochem. Pharmacol 51, 173-182 (1996)). Spleen cells (4-5 week old male CD1 mouse, 20-22 gm, Charles River, Wilmington, Mass.) suspensions were prepared and plated in 96-well dishes at a density of 10^6 cells/ml in a final volume of 100 μl. The cells were incubated at 37° C. after adding 10 μl of oligonucleotides. After 44 hrs incubation, 1 μCi [3H]thymidine (Amersham, Arlington Heights, Ill.) was added and the cells were pulse-labeled for another 4 hrs. The cells were harvested by an automatic cell harvester and the filters were counted by a scintillation counter. All experiments were carried out in triplicate.

[5] = tested on: snake venom phosphodiesterase; test: Snake venom phosphodiesterase assay; type: in vitro ADME; conditions: 0.01 U, 21° C.; compared with SEQ ID NO 7
Experimental: (§2) For snake venom phosphodiesterase assay, labeled oligonucleotide with cold oligonucleotide in a buffer (10 mM Tris, pH 8.0, 100 mM sodium chloride, and 10 mM magnesium chloride) was incubated with 0.01 U of snake venom phosphodiesterase (Boehringer-Mannheim, Indianapolis, Ind.) at 21° C. (final volume 40 μl). Aliquots were removed at different time intervals for electrophoretic gel analysis. For S1 nuclease assay, reactions were carried out as above but in […] sodium acetate, pH 5.0, 10 mM zinc acetate buffer and with 1.4 U of S1 nuclease (Gibco/BRL) incubated at 37° C. in a final volume of 50 μl. Aliquots were removed at different time intervals for electrophoretic gel analysis. Nuclease reactions were stopped by adding 5 μl of formamide gel loading buffer to each sample and heating at 90° C. for 5 min. All the samples were then run by 20% PAGE (7M urea) and visualized by autoradiography.

[6] = Stability in DMEM cell culture medium containing 10% fetal calf serum; type: in vitro ADME; conditions: DMEM with 10% non-heat-inactivated fetal calf serum, 37° C.
Experimental: Oligonucleotides were labeled at the 5'-end with ^32 P using γ-^32 P-ATP (Amersham) and T4 polynucleotide kinase (Promega). Sambrook et al, Molecular Cloning, supra. Stability of the oligonucleotides in cell culture medium containing 10% fetal calf serum was tested by incubating a small amount of labeled oligonucleotide together with 100 ng of cold oligonucleotide in DMEM cell culture medium (Gibco/BRL, Grand Island, N.Y.) containing 10% non-heat-inactivated fetal calf serum (Gibco/BRL) at 37° C. in a final volume of 40 μl, and aliquots were removed at different times.

S1 nuclease = molecular target: T1, S1 nuclease (Aspergillus oryzae, UniProt P24021); test: S1 nuclease assay; type: in vitro ADME; conditions: 1.4 U, 37° C., pH 5.0
T1 construct: purchased Gibco/BRL
T1 sequence (P24021 21-287): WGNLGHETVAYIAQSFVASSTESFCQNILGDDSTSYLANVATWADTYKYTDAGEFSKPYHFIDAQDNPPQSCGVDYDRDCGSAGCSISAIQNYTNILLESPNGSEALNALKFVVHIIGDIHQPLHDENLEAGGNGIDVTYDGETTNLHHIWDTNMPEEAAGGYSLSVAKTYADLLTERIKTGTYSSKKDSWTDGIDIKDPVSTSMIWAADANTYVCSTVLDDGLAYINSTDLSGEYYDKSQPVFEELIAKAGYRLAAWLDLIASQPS
Experimental: as §2

Row | Substance | Tm RNA [1] [°C] | Tm DNA [2] [°C] | 50% Inhibition of Complement Lysis [3] [µg/mL] | IC50 (HIV-1) [nM] | 50% Prolongation of Clotting (aPTT) [4] | Stimulation Index (Lymphocyte Proliferation) (Spleen cells (CD1 mouse)) | other results
1 | SEQ ID NO 2: MBO with three 2'-5'-linkages at each end; 2'-5'-phosphodiester and 3'-5'-phosphorothioate linkages (antisense CUCTCGCACCCATCTCTCTCCUUCT; linkages [25]3 s18 [25]3 (s phosphorothioate, o phosphodiester), sugars by position and methylation of C not given here) | 63.3 | 52.5 | 59.1 | 99.9 | 51.1 µg/mL | 2.82 ± 0.37 | concentration required to achieve IC50 relative to control SEQ ID NO 8 (HIV-1; HIV-1 replication): four fold higher concentration
2 | SEQ ID NO 3: Phosphorothioate analog of SEQ ID NO 1 (antisense CUCTCGCACCCATCTCTCTCCUUCT; phosphorothioate, chemistry not fully specified) | 61.1 | 51.9 | 95.2 | 29.8 | 58.0 µg/mL | 4.9 | Tm lower than duplex of control phosphorothioate oligonucleotide SEQ ID NO 8, RNA target [1]: ~2.4 °C; Tm lower than duplex of control phosphorothioate oligonucleotide SEQ ID NO 8, DNA target [2]: about 4.70 °C; Stimulation Index (Lymphocyte Proliferation) (Spleen cells (CD1 mouse); listed as 3): 4.93 ± 0.15
3 | SEQ ID NO 4: Phosphodiester MBO with three 2'-5' linkages at each end and an additional three in the middle (antisense CUCTCGCACCCAUCTCTCTCCUUCT; phosphodiester, three 2'-5' linkages at each end and three in middle, further chemistry not given here) | 64.5 | 52.8 |  |  | > 100.0 µg/mL |  | ΔTm with the RNA strand ([1]; destabilizing effect, RNA strand): -6.0 °C; ΔTm with the DNA strand ([2]; destabilizing effect, DNA strand): -10.7 °C; stability against snake venom phosphodiesterase (in words) [5]: slightly higher stability; stability in serum (in words) [6]: intact up to four hours; effect in coagulation assay (in words) [4]: negligible effect; digestion by S1 nuclease (in words) (S1 nuclease): quickly digested
4 | SEQ ID NO 5: MBO with nine 2'-5'-linkages; 2'-5'-phosphodiester and 3'-5'-phosphorothioate linkages (antisense CUCTCGCACCCAUCTCTCTCCUUCT; nine 2'-5' phosphodiester linkages, other linkages 3'-5' phosphorothioate, further chemistry not given here) | 61.2 | 43.2 |  | > 800 | 115.0 µg/mL | 1.09 ± 0.05 | IC50 (HIV-1; listed as 5): 812 nM
5 | SEQ ID NO 6: Phosphorothioate analog of SEQ ID NO 4, with nine 2'-5' linkages (antisense CUCTCGCACCCAUCTCTCTCCUUCT; all linkages phosphorothioate, nine 2'-5' linkages, further chemistry not given here) | 56.4 | 39.4 | > 500.0 |  | 98.3 µg/mL | 0.23 | Tm lower than duplex of control phosphorothioate oligonucleotide SEQ ID NO 8, RNA target [1]: 7.1 °C; Tm lower than duplex of control phosphorothioate oligonucleotide SEQ ID NO 8, DNA target [2]: 17.2 °C; Stimulation Index (Lymphocyte Proliferation) (Spleen cells (CD1 mouse); listed as 6): 0.23 ± 0.04
6 | SEQ ID NO 7: Control phosphodiester oligonucleotide containing all 3'-5' linkages (CTCTCGCACCCATCTCTCTCCTTCT; all phosphodiester, sugars by position and methylation of C not given here) [reference compound] | 70.5 | 63.5 | > 500.0 |  | > 100.0 µg/mL | 1.10 ± 0.13 | half-life in serum [6]: < 30 min; effect in coagulation assay (in words) [4]: negligible effect; digestion by S1 nuclease (in words) (S1 nuclease): quickly digested
7 | SEQ ID NO 8: Control phosphorothioate oligonucleotide containing all 3'-5' linkages (CTCTCGCACCCATCTCTCTCCTTCT; all phosphorothioate, sugars by position and methylation of C not given here) [reference compound] | 63.5 | 56.6 | 34.2 | 24.9 | about 23 μg/ml | 6.16 | effect on complement hemolytic activity (in words) [3]: inhibited serum complement hemolytic activity; 50% Prolongation of Clotting (aPTT) ([4]; listed as 8): 23.2 µg/mL; Stimulation Index (Lymphocyte Proliferation) (Spleen cells (CD1 mouse); listed as 8): 6.16 ± 0.12
